Test results as given in PubChem BioAssay AID272 (DTP/NCI, 2004).
Values joined by “and” are separate entries in the source; they are usually repeats but may differ in a detail not shown here. Identical values can stand only once. Inconclusive results are not listed.

Test system: Lewis lung carcinoma i.m., BDF1 mice, T/C %
Assay: NCI In Vivo Anticancer Drug Screen. Data for tumor model Lewis Lung Carcinoma (intramuscular) in B6D2F1 (BDF1) mice
Method in brief: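 Antitumour activity is assessed in transplanted-tumour mice. Endpoint is survival or tumour size, normalised to vehicle-dosed controls (T/C).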

[1] = endpoint: mean tumor weight, dose: 6.25 mg/kg/injection, schedule: Q01DX011 (ip), vehicle: saline, higher = larger tumour

Q: What does the source list for `CC1CCC(NC(=O)N(CCCl)N=O)CC1` (configuration not stated)?
A: T/C (endpoint: mean tumor weight, dose: 3.12 mg/kg/injection, schedule: Q01DX011 (ip), vehicle: saline, higher = larger tumour): 83 % of control; T/C (endpoint: mean tumor weight, dose: 3.12 mg/kg/injection, schedule: Q06HX008 (ip), vehicle: saline, higher = larger tumour): 80 % of control; T/C [1]: 63 % of control; T/C (endpoint: mean tumor weight, dose: 6.25 mg/kg/injection, schedule: Q06HX004 (ip), vehicle: saline, higher = larger tumour): 41 % of control; T/C (endpoint: mean tumor weight, dose: 6.25 mg/kg/injection, schedule: Q06HX008 (ip), vehicle: saline, higher = larger tumour): 93 % of control; T/C (endpoint: mean tumor weight, dose: 8.4 mg/kg/injection, schedule: Q01DX001 (sc), vehicle: Klucel (hydroxypropylcellulose) (HPC), higher = larger tumour): 111 % of control; T/C (endpoint: mean tumor weight, dose: 12.5 mg/kg/injection, schedule: Q01DX001 (ip), vehicle: saline, higher = larger tumour): 76 % of control; T/C (endpoint: mean tumor weight, dose: 12.5 mg/kg/injection, schedule: Q06HX008 (ip), vehicle: saline, higher = larger tumour): 11 % of control; T/C (endpoint: mean tumor weight, dose: 12.5 mg/kg/injection, schedule: Q08DX002 (ip), vehicle: saline, higher = larger tumour): 99 % of control; T/C (endpoint: mean tumor weight, dose: 14.0 mg/kg/injection, schedule: Q01DX001 (sc), vehicle: Klucel (hydroxypropylcellulose) (HPC), higher = larger tumour): 56 % of control; T/C (endpoint: mean tumor weight, dose: 23.0 mg/kg/injection, schedule: Q01DX001 (sc), vehicle: Klucel (hydroxypropylcellulose) (HPC), higher = larger tumour): 35 % of control; T/C (endpoint: mean tumor weight, dose: 25.0 mg/kg/injection, schedule: Q01DX001 (ip), vehicle: saline, higher = larger tumour): 38 % of control; T/C (endpoint: mean tumor weight, dose: 25.0 mg/kg/injection, schedule: Q08DX002 (ip), vehicle: saline, higher = larger tumour): 30 % of control; T/C (endpoint: mean tumor weight, dose: 39.0 mg/kg/injection, schedule: Q01DX001 (sc), vehicle: Klucel (hydroxypropylcellulose) (HPC), higher = larger tumour): 21 % of control; T/C (endpoint: mean tumor weight, dose: 50.0 mg/kg/injection, schedule: Q01DX001 (ip), vehicle: saline, higher = larger tumour): 12 % of control; T/C (endpoint: mean tumor weight, dose: 50.0 mg/kg/injection, schedule: Q08DX002 (ip), vehicle: saline, higher = larger tumour): 8 % of control; T/C (endpoint: median survival time, dose: 1.0 mg/kg/injection, schedule: Q01DX009 (ip), vehicle: saline + alcohol, higher = longer survival): 112 % of control; T/C (endpoint: median survival time, dose: 2.5 mg/kg/injection, schedule: Q01DX015 (ip), vehicle: saline, higher = longer survival): 111 % of control; T/C (endpoint: median survival time, dose: 3.12 mg/kg/injection, schedule: Q01DX017 (ip), vehicle: saline, higher = longer survival): 100 % of control; T/C (endpoint: median survival time, dose: 3.12 mg/kg/injection, schedule: Q06HX012 (ip), vehicle: saline, higher = longer survival): 97 % of control; T/C (endpoint: median survival time, dose: 4.0 mg/kg/injection, schedule: Q01DX009 (ip), vehicle: saline + alcohol, higher = longer survival): 104 % of control and 118 % of control; T/C (endpoint: median survival time, dose: 4.0 mg/kg/injection, schedule: Q01DX011 (ip), vehicle: saline with Tween-80, higher = longer survival): 100 % of control and 114 % of control; T/C (endpoint: median survival time, dose: 5.0 mg/kg/injection, schedule: Q01DX015 (ip), vehicle: saline, higher = longer survival): 97 % of control and 107 % of control; T/C (endpoint: median survival time, dose: 6.25 mg/kg/injection, schedule: Q06HX004 (ip), vehicle: saline, higher = longer survival): 106 % of control; T/C (endpoint: median survival time, dose: 6.3 mg/kg/injection, schedule: Q01DX015 (ip), vehicle: saline, higher = longer survival): 95 % of control; T/C (endpoint: median survival time, dose: 7.5 mg/kg/injection, schedule: Q07DX003 (ip), vehicle: saline, higher = longer survival): 90 % of control; T/C (endpoint: median survival time, dose: 7.9 mg/kg/injection, schedule: Q01DX015 (ip), vehicle: saline, higher = longer survival): 90 % of control; T/C (endpoint: median survival time, dose: 8.0 mg/kg/injection, schedule: Q01DX009 (ip), vehicle: saline + alcohol, higher = longer survival): 156 % of control; T/C (endpoint: median survival time, dose: 8.4 mg/kg/injection, schedule: Q01DX001 (sc), vehicle: Klucel (hydroxypropylcellulose) (HPC), higher = longer survival): 114 % of control; T/C (endpoint: median survival time, dose: 10.0 mg/kg/injection, schedule: Q01DX001 (ip), vehicle: saline + alcohol, higher = longer survival): 116 % of control; T/C (endpoint: median survival time, dose: 12.5 mg/kg/injection, schedule: Q01DX001 (ip), vehicle: saline, higher = longer survival): 104 % of control; T/C (endpoint: median survival time, dose: 12.5 mg/kg/injection, schedule: Q06HX004 (ip), vehicle: saline, higher = longer survival): 158 % of control; T/C (endpoint: median survival time, dose: 12.5 mg/kg/injection, schedule: Q06HX012 (ip), vehicle: saline, higher = longer survival): 93 % of control; T/C (endpoint: median survival time, dose: 12.5 mg/kg/injection, schedule: Q08DX003 (ip), vehicle: saline, higher = longer survival): 108 % of control; T/C (endpoint: median survival time, dose: 14.0 mg/kg/injection, schedule: Q01DX001 (sc), vehicle: Klucel (hydroxypropylcellulose) (HPC), higher = longer survival): 158 % of control; T/C (endpoint: median survival time, dose: 14.0 mg/kg/injection, schedule: Q07DX003 (ip), vehicle: saline, higher = longer survival): 104 % of control; T/C (endpoint: median survival time, dose: 15.0 mg/kg/injection, schedule: Q07DX003 (ip), vehicle: saline, higher = longer survival): 90 % of control; T/C (endpoint: median survival time, dose: 20.0 mg/kg/injection, schedule: Q01DX001 (ip), vehicle: saline + alcohol, higher = longer survival): 92 % of control; T/C (endpoint: median survival time, dose: 23.0 mg/kg/injection, schedule: Q01DX001 (sc), vehicle: Klucel (hydroxypropylcellulose) (HPC), higher = longer survival): 177 % of control; T/C (endpoint: median survival time, dose: 23.0 mg/kg/injection, schedule: Q07DX003 (ip), vehicle: saline, higher = longer survival): 112 % of control; T/C (endpoint: median survival time, dose: 24.0 mg/kg/injection, schedule: Q01DX001 (ip), vehicle: saline, higher = longer survival): 102 % of control; T/C (endpoint: median survival time, dose: 24.0 mg/kg/injection, schedule: Q07DX003 (ip), vehicle: saline, higher = longer survival): 175 % of control; T/C (endpoint: median survival time, dose: 25.0 mg/kg/injection, schedule: Q01DX001 (ip), vehicle: saline, higher = longer survival): 122 % of control; T/C (endpoint: median survival time, dose: 25.0 mg/kg/injection, schedule: Q08DX003 (ip), vehicle: saline, higher = longer survival): 91 % of control; T/C (endpoint: median survival time, dose: 30.0 mg/kg/injection, schedule: Q01DX001 (ip), vehicle: saline + alcohol, higher = longer survival): 92 % of control; T/C (endpoint: median survival time, dose: 30.0 mg/kg/injection, schedule: Q01DX001 (ip), vehicle: saline, higher = longer survival): 197 % of control; T/C (endpoint: median survival time, dose: 30.0 mg/kg/injection, schedule: Q07DX003 (ip), vehicle: saline, higher = longer survival): 197 % of control and 204 % of control; T/C (endpoint: median survival time, dose: 30.0 mg/kg/injection, schedule: Q14DX002 (ip), vehicle: saline, higher = longer survival): 187 % of control; T/C (endpoint: median survival time, dose: 39.0 mg/kg/injection, schedule: Q07DX003 (ip), vehicle: saline, higher = longer survival): 151 % of control; T/C (endpoint: median survival time, dose: 45.0 mg/kg/injection, schedule: Q01DX001 (ip), vehicle: saline, higher = longer survival): 151 % of control; T/C (endpoint: median survival time, dose: 45.0 mg/kg/injection, schedule: Q07DX003 (ip), vehicle: saline, higher = longer survival): 117 % of control; T/C (endpoint: median survival time, dose: 45.0 mg/kg/injection, schedule: Q14DX002 (ip), vehicle: saline, higher = longer survival): 117 % of control; T/C (endpoint: median survival time, dose: 50.0 mg/kg/injection, schedule: Q01DX001 (ip), vehicle: saline, higher = longer survival): 181 % of control; T/C (endpoint: median survival time, dose: 56.0 mg/kg/injection, schedule: Q07DX003 (ip), vehicle: saline, higher = longer survival): 100 % of control

Q: `O=NN(CCCl)C(=O)NCc1ccc(-c2ccc(CNC(=O)N(CCCl)N=O)cc2)cc1` was tested. Which T/C (endpoint: median survival time, dose: 108.0 mg/kg/injection, schedule: Q07DX003 (ip), vehicle: Klucel (hydroxypropylcellulose) (HPC), higher = longer survival) did it give?
A: 104 % of control

Q: And the T/C (endpoint: median survival time, dose: 180.0 mg/kg/injection, schedule: Q07DX003 (ip), vehicle: Klucel (hydroxypropylcellulose) (HPC), higher = longer survival)?
A: 93 % of control

Q: For `CC(=O)OC(C1CO1)C(OC(C)=O)C1CO1` (configuration not stated), which T/C (endpoint: median survival time, dose: 5.0 mg/kg/injection, schedule: Q01DX011 (ip), vehicle: saline, higher = longer survival) is on record?
A: 105 % of control

Q: What about the T/C (endpoint: median survival time, dose: 10.0 mg/kg/injection, schedule: Q01DX011 (ip), vehicle: saline, higher = longer survival) of the same molecule?
A: 121 % of control

Q: What does the source list for `Cc1cc(/C=C/c2cc[n+](C)c3ccccc23)c(O)c2ncccc12`?
A: T/C (endpoint: mean tumor weight, dose: 6.0 mg/kg/injection, schedule: Q01DX011 (ip), vehicle: saline, higher = larger tumour): 76 % of control; T/C (endpoint: median survival time, dose: 6.0 mg/kg/injection, schedule: Q01DX011 (ip), vehicle: saline, higher = longer survival): 102 % of control

Q: How did the T/C (endpoint: mean tumor weight, dose: 3.13 mg/kg/injection, schedule: Q01DX011 (ip), vehicle: saline, higher = larger tumour) turn out when `FC(F)(F)c1ccc(-c2ccc(OCCN3CCCC3)cc2)cc1` was run?
A: 57 % of control

Q: What about the T/C [1] of the same molecule?
A: 62 % of control

Q: What about the T/C (endpoint: median survival time, dose: 3.13 mg/kg/injection, schedule: Q01DX011 (ip), vehicle: saline, higher = longer survival) of the same molecule?
A: 104 % of control

Q: What about the T/C (endpoint: median survival time, dose: 6.25 mg/kg/injection, schedule: Q01DX011 (ip), vehicle: saline, higher = longer survival) of the same molecule?
A: 100 % of control

Q: How did the T/C (endpoint: mean tumor weight (est.), dose: 100.0 mg/kg/injection, schedule: Q01DX011 (ip), vehicle: saline with Tween-80, higher = larger tumour) turn out when `COc1ccc(C(=O)c2cc(OC)c(OC)c(OC)c2)cc1OC` was run?
A: 34 % of control

Q: What about the T/C (endpoint: mean tumor weight (est.), dose: 200.0 mg/kg/injection, schedule: Q01DX011 (ip), vehicle: saline with Tween-80, higher = larger tumour) of the same molecule?
A: 51 % of control

Q: And the T/C (endpoint: mean tumor weight (est.), dose: 400.0 mg/kg/injection, schedule: Q01DX011 (ip), vehicle: saline with Tween-80, higher = larger tumour)?
A: 43 % of control

Q: What about the T/C (endpoint: median survival time, dose: 100.0 mg/kg/injection, schedule: Q01DX011 (ip), vehicle: saline with Tween-80, higher = longer survival) of the same molecule?
A: 93 % of control

Q: What about the T/C (endpoint: median survival time, dose: 200.0 mg/kg/injection, schedule: Q01DX011 (ip), vehicle: saline with Tween-80, higher = longer survival) of the same molecule?
A: 89 % of control

Q: And the T/C (endpoint: median survival time, dose: 400.0 mg/kg/injection, schedule: Q01DX011 (ip), vehicle: saline with Tween-80, higher = longer survival)?
A: 108 % of control

Q: With `CC(=O)c1c(O)c(C)c(O)c2c1OC1=CC(=O)C(C(C)=O)C(=O)C12C` (configuration not stated) as the molecule, how does the T/C (endpoint: mean tumor weight, dose: 53.0 mg/kg/injection, schedule: Q01DX011 (ip), vehicle: other, higher = larger tumour) read?
A: 110 % of control

Q: What about the T/C (endpoint: mean tumor weight, dose: 79.0 mg/kg/injection, schedule: Q01DX011 (ip), vehicle: other, higher = larger tumour) of the same molecule?
A: 92 % of control

Q: What about the T/C (endpoint: mean tumor weight, dose: 118.0 mg/kg/injection, schedule: Q01DX011 (ip), vehicle: other, higher = larger tumour) of the same molecule?
A: 105 % of control

Q: And the T/C (endpoint: mean tumor weight, dose: 177.0 mg/kg/injection, schedule: Q01DX011 (ip), vehicle: other, higher = larger tumour)?
A: 77 % of control

Q: And the T/C (endpoint: median survival time, dose: 53.0 mg/kg/injection, schedule: Q01DX011 (ip), vehicle: other, higher = longer survival)?
A: 98 % of control

Q: And the T/C (endpoint: median survival time, dose: 79.0 mg/kg/injection, schedule: Q01DX011 (ip), vehicle: other, higher = longer survival)?
A: 103 % of control

Q: What about the T/C (endpoint: median survival time, dose: 177.0 mg/kg/injection, schedule: Q01DX011 (ip), vehicle: other, higher = longer survival) of the same molecule?
A: 96 % of control
